From patent US10570152B2, “Antibacterial therapeutics and prophylactics” (VYOME BIOSCIENCES PVT. LTD., priority 2015, dated 2020)
Values after ≈ are worked out from the molar mass of the structure shown.

Experiments:
Test in all cases: MIC by micro broth dilution
Type in all cases: cell-based
K. pneumonia ATCC 13883 = details: for activity in words: Klebsiella pneumonia (susceptible); for MIC: Klebsiella pneumoniae, ATCC13883, read-out: Minimum inhibitory concentration (MIC)
Procedure: (§1) MIC of DART molecules were determined by micro broth dilution as per CLSI guidelines. Bacterial strains were cultured in Brain Heart Infusion Agar (BHIA) at 37° C. for 24 h. For MIC determination, BHI broth (100 μl) was added to each of the wells of a 96 well plate. 100 μl of broth containing drug was added to the first well (1A to 1H) and thereafter serial (double) dilutions were carried out for up to 10 wells (column 1 to column 10 of the 96 well plate). Bacterial inoculum was prepared by adjusting the bacterial culture turbidity to 0.5 McFarland standard (approximately 1.5×10^8 cells/ml) and further diluted (100 times with sterile BHI broth). Diluted bacterial suspension (100 μl) was added to each well except sterility control wells (column 12 of 96 well plate). The plates were incubated at 37° C. for 24 h. The MIC of the test compound was measured after addition of Alamar blue dye.

E. aerogenes NCIM 5139 = details: for MIC: Klebsiella aerogenes, NCIM5139, read-out: Minimum inhibitory concentration (MIC)
Procedure: as §1

S. aureus CCARM 3505 = details: for MIC: Staphylococcus aureus, CCARM3505, read-out: Minimum inhibitory concentration (MIC)
Procedure: as §1

[1] = test system: S. epidermidis ATCC 35984; details: for MIC: Staphylococcus epidermidis, ATCC35984, read-out: Minimum inhibitory concentration (MIC)
Procedure: as §1

P. aeruginosa ATCC 27853 = details: for MIC: Pseudomonas aeruginosa, ATCC27853, read-out: Minimum inhibitory concentration (MIC)
Procedure: as §1

E. coli MTCC 1687 = details: for MIC: Escherichia coli, MTCC1687, read-out: Minimum inhibitory concentration (MIC)
Procedure: as §1

E. faecium NCIM 5421 = details: for MIC: Enterococcus faecium, NCIM5421, read-out: Minimum inhibitory concentration (MIC)
Procedure: as §1

S. aureus ATCC 43300 = details: S. aureus ATCC 43300; for MIC: Staphylococcus aureus, ATCC43300, read-out: Minimum inhibitory concentration (MIC)
Procedure: as §1

E. aerogenes M2-1 = details: for MIC: Klebsiella aerogenes, M21, read-out: Minimum inhibitory concentration (MIC)
Procedure: as §1

S. epidermidis S12-1 = details: for MIC: Staphylococcus epidermidis, S121, read-out: Minimum inhibitory concentration (MIC)
Procedure: as §1

E. coli BAA 196 = details: for MIC: Escherichia coli, BAA196, read-out: Minimum inhibitory concentration (MIC)
Procedure: as §1

A. baumannii ATCC 1906 = details: for MIC: Acinetobacter baumannii, ATCC1906, read-out: Minimum inhibitory concentration (MIC)
Procedure: as §1

S. aureus MTCC 6908 = details: for MIC: Staphylococcus aureus, MTCC6908, read-out: Minimum inhibitory concentration (MIC)
Procedure: as §1

A. baumannii CCARM 12001 = test system: A. baumannii CCARM 12001
Procedure: as §1

A. baumannii CCARM 12020 = test system: A. baumannii CCARM 12020
Procedure: as §1

P. aeruginosa CCARM 2204 = details: Pseudomonas aeruginosa, CCARM2204, read-out: Minimum inhibitory concentration (MIC)
Procedure: as §1

P. aeruginosa CCARM 2161 = details: Pseudomonas aeruginosa, CCARM2161, read-out: Minimum inhibitory concentration (MIC)
Procedure: as §1

Row | Structure (SMILES) | activity in words (K. pneumonia ATCC 13883) | MIC (K. pneumonia ATCC 13883; K. pneumonia ATCC 13883) [µg/mL] | MIC (E. aerogenes NCIM 5139) [µg/mL] | MIC (S. aureus CCARM 3505) [µg/mL] | MIC [1] [µg/mL] | MIC (P. aeruginosa ATCC 27853) [µg/mL] | MIC (E. coli MTCC 1687) [µg/mL] | MIC (E. faecium NCIM 5421) [µg/mL] | MIC (S. aureus ATCC 43300) [µg/mL] | MIC (E. aerogenes M2-1) [µg/mL] | MIC (S. epidermidis S12-1) [µg/mL] | MIC (E. coli BAA 196) [µg/mL] | MIC (A. baumannii ATCC 1906) [µg/mL] | MIC (S. aureus MTCC 6908) [µg/mL] | further results
1 | CC1Sc2c(C(=O)O)c(=O)c3cc(F)c(N4CCN(Cc5nc6ccc(N)cc6[nH]5)CC4)cc3n21 (centres unmarked) [Compound 20, 7-(4-((6-Amino-1H-benzo[d]imidazol-2-yl)methyl)piperazin-1-yl)-6-fluoro-1-methyl-4-oxo-1H,4H-[1,3]thiazeto[3,2-a]quinoline-3-carboxylic acid] | active | 0.25 (≈ 0.506 µM) | 0.5 (≈ 1.01 µM) | > 16 | 0.13 (≈ 0.263 µM) | 4 (≈ 8.09 µM) | 1 (≈ 2.02 µM) | 1 (≈ 2.02 µM) | 0.5 (≈ 1.01 µM) | 4 (≈ 8.09 µM) | > 16 | > 16 | 8 (≈ 16.2 µM) | 8 (≈ 16.2 µM) | –
2 | O=C(N[C@@H]1CCCCN(c2c(F)cc3c(=O)c(C(=O)O)cn(C4CC4)c3c2Cl)C1)c1ccc([N+](=O)[O-])o1 [Compound 16] | active | – | – | – | – | – | – | – | – | – | – | – | – | – | Minimum inhibitory concentration (MIC) (K. pneumonia ATCC 13883; K. pneumonia ATCC 13883): 0.25 µg/mL (≈ 0.469 µM); Minimum inhibitory concentration (MIC) (E. aerogenes NCIM 5139): 2 µg/mL (≈ 3.75 µM); Minimum inhibitory concentration (MIC) (S. aureus CCARM 3505): 0.5 µg/mL (≈ 0.938 µM); Minimum inhibitory concentration (MIC) [1]: <0.03 µg/mL; Minimum inhibitory concentration (MIC) (P. aeruginosa ATCC 27853): 2 µg/mL (≈ 3.75 µM); Minimum inhibitory concentration (MIC) (E. coli MTCC 1687): 4 µg/mL (≈ 7.51 µM); Minimum inhibitory concentration (MIC) (E. faecium NCIM 5421): 0.12 µg/mL (≈ 0.225 µM); Minimum inhibitory concentration (MIC) (S. aureus ATCC 43300): <0.01 µg/mL; Minimum inhibitory concentration (MIC) (E. aerogenes M2-1): 4 µg/mL (≈ 7.51 µM); Minimum inhibitory concentration (MIC) (S. epidermidis S12-1): 0.13 µg/mL (≈ 0.244 µM); Minimum inhibitory concentration (MIC) (E. coli BAA 196): >16 µg/mL; Minimum inhibitory concentration (MIC) (A. baumannii ATCC 1906): .05 µg/mL (≈ 0.0938 µM); Minimum inhibitory concentration (MIC) (A. baumannii CCARM 12001): 16 µg/mL (≈ 30 µM); Minimum inhibitory concentration (MIC) (S. aureus MTCC 6908): 0.25 µg/mL (≈ 0.469 µM); Minimum inhibitory concentration (MIC) (A. baumannii CCARM 12020): >16 µg/mL
3 | CC1Sc2c(C(=O)O)c(=O)c3cc(F)c(N4CCN(CC(=O)Nc5ncc([N+](=O)[O-])s5)CC4)cc3n21 (centres unmarked) [Compound 6, 6-Fluoro-1-methyl-7-(4-(2-((5-nitrothiazol-2-yl)amino)-2-oxoethyl)piperazin-1-yl)-4-oxo-1H,4H-[1,3]-thiazeto[3,2-a]quinoline-3-carboxylic acid] | active | 0.25 (≈ 0.468 µM) | 4 (≈ 7.48 µM) | 4 (≈ 7.48 µM) | < 0.03 | 8 (≈ 15 µM) | 1 (≈ 1.87 µM) | 0.25 (≈ 0.468 µM) | < 0.13 | 4 (≈ 7.48 µM) | 4 (≈ 7.48 µM) | 16 (≈ 29.9 µM) | 8 (≈ 15 µM) | 0.1 (≈ 0.187 µM) | –
4 | CC1Sc2c(C(=O)O)c(=O)c3cc(F)c(N4CCN(Cc5nc6cc(Cl)c(Cl)cc6[nH]5)CC4)cc3n21 (centres unmarked) [Compound 21, 7-(4-((5,6-Dichloro-1H-benzo[d]imidazol-2-yl)methyl)piperazin-1-yl)-6-fluoro-1-methyl-4-oxo-1H,4H-[1,3]thiazeto[3,2-a]quinoline-3-carboxylic acid] | active | 0.5 (≈ 0.912 µM) | 16 (≈ 29.2 µM) | > 16 | < 0.03 | 16 (≈ 29.2 µM) | 8 (≈ 14.6 µM) | 0.25 (≈ 0.456 µM) | 0.13 (≈ 0.237 µM) | 16 (≈ 29.2 µM) | > 16 | > 16 | 16 (≈ 29.2 µM) | 0.25 (≈ 0.456 µM) | MIC (P. aeruginosa CCARM 2204): > 16 µg/mL; MIC (P. aeruginosa CCARM 2161): > 16 µg/mL; MIC (A. baumannii CCARM 12001; Acinetobacter baumannii, CCARM12001, read-out: Minimum inhibitory concentration (MIC)): > 16 µg/mL; MIC (A. baumannii CCARM 12020; Acinetobacter baumannii, CCARM12020, read-out: Minimum inhibitory concentration (MIC)): > 16 µg/mL
